Results: ChEMBL document CHEMBL1201862, “PubChem BioAssay data set” (2004)
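A five-concentration, 48-hour dose response in 96-well plates underlies each endpoint, interpolated linearly between surrounding concentrations. At the GI50, growth is halved.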 Calls of active or inactive are those of the source. No stated cut-off is given here; in the data, active = GI50 up to about 1.1 µM and inactive = higher.

Legend:
Experiment in all cases: NCI-60 cell line screen, 48 h
ACHN = system: ACHN
BT-549 = system: BT-549
CAKI-1 = system: CAKI-1
HOP-92 = system: HOP-92
HT-29 = system: HT-29
Hs-578T = system: Hs-578T
IGROV-1 = system: IGROV-1
K562 = system: K562
KM12 = system: KM12
NCI-H460 = system: NCI-H460
OVCAR-5 = system: OVCAR-5
SF-295 = system: SF-295
SK-MEL-28 = system: SK-MEL-28
SK-MEL-2 = system: SK-MEL-2
SN12C = system: SN12C
SR = system: SR
TK-10 = system: TK-10
U-251 = system: U-251
UACC-62 = system: UACC-62

## CN(CCC(=O)O)S(=O)(=O)c1ccccc1
ACHN
  GI50: > 100 µM (inactive)
BT-549
  GI50: > 100 µM (inactive)
CAKI-1
  GI50: > 100 µM (inactive)
HOP-92
  GI50: > 100 µM (inactive)
HT-29
  GI50: > 100 µM (inactive)
Hs-578T
  GI50: > 100 µM (inactive)
IGROV-1
  GI50: > 100 µM (inactive)
K562
  GI50: > 100 µM (inactive)
KM12
  GI50: > 100 µM (inactive)
NCI-H460
  GI50: > 100 µM (inactive)
OVCAR-5
  GI50: > 100 µM (inactive)
SF-295
  GI50: > 100 µM (inactive)
SK-MEL-28
  GI50: > 100 µM (inactive)
SK-MEL-2
  GI50: > 100 µM (inactive)
SN12C
  GI50: > 100 µM (inactive)
SR
  GI50: > 100 µM (inactive)
TK-10
  GI50: > 100 µM (inactive)
U-251
  GI50: > 100 µM (inactive)
UACC-62
  GI50: > 100 µM (inactive)

## CCCCCCCCCCCCCCCCCCNc1ccn(C2OC(COP(=O)(O)OCC3OC(n4cc(F)c(=O)[nH]c4=O)CC3O)C(O)C2O)c(=O)n1 (stereo not drawn)
ACHN
  GI50: 0.778 µM (active)
BT-549
  GI50: 11.7 µM (inactive)
CAKI-1
  GI50: 1.16 µM (inactive)
HOP-92
  GI50: > 100 µM (inactive)
HT-29
  GI50: 5.38 µM (inactive)
Hs-578T
  GI50: 17.8 µM (inactive)
IGROV-1
  GI50: 10.1 µM (inactive)
K562
  GI50: 12.1 µM (inactive)
KM12
  GI50: 15.5 µM (inactive)
NCI-H460
  GI50: 3.53 µM (inactive)
OVCAR-5
  GI50: 15 µM (inactive)
SF-295
  GI50: 0.47 µM (active)
SK-MEL-28
  GI50: > 100 µM (inactive)
SK-MEL-2
  GI50: 51.9 µM (inactive)
SN12C
  GI50: 3.29 µM (inactive)
SR
  GI50: 0.337 µM (active)
TK-10
  GI50: 14.7 µM (inactive)
U-251
  GI50: 6.28 µM (inactive)
UACC-62
  GI50: 1.19 µM (inactive)

## NC1C2C(CC(=O)O)OCC=C3CN4CCC1(C(=O)C(=O)O)C4CC32 (stereo not drawn)
ACHN
  GI50: > 100 µM (inactive)
BT-549
  GI50: > 100 µM (inactive)
CAKI-1
  GI50: > 100 µM (inactive)
HOP-92
  GI50: > 100 µM (inactive)
HT-29
  GI50: > 100 µM (inactive)
Hs-578T
  GI50: > 100 µM (inactive)
IGROV-1
  GI50: > 100 µM (inactive)
K562
  GI50: > 100 µM (inactive)
KM12
  GI50: > 100 µM (inactive)
NCI-H460
  GI50: > 100 µM (inactive)
OVCAR-5
  GI50: > 100 µM (inactive)
SF-295
  GI50: > 100 µM (inactive)
SK-MEL-28
  GI50: > 100 µM (inactive)
SK-MEL-2
  GI50: > 100 µM (inactive)
SN12C
  GI50: > 100 µM (inactive)
SR
  GI50: > 100 µM (inactive)
TK-10
  GI50: > 100 µM (inactive)
U-251
  GI50: > 100 µM (inactive)
UACC-62
  GI50: > 100 µM (inactive)

## C=C[C@]1(C)C[C@@H](OC(=O)CO)[C@@]2(C)[C@H](C)CC[C@]3(CCC(=O)[C@H]32)[C@@H](C)[C@@H]1O
ACHN
  GI50: > 93.5 µM (inactive)
BT-549
  GI50: > 61.4 µM (inactive)
CAKI-1
  GI50: > 100 µM (inactive)
HOP-92
  GI50: > 86.1 µM (inactive)
HT-29
  GI50: > 100 µM (inactive)
Hs-578T
  GI50: > 53.1 µM (inactive)
IGROV-1
  GI50: > 91.2 µM (inactive)
K562
  GI50: 40 µM (inactive)
KM12
  GI50: > 100 µM (inactive)
NCI-H460
  GI50: > 61.2 µM (inactive)
OVCAR-5
  GI50: > 100 µM (inactive)
SF-295
  GI50: > 76.4 µM (inactive)
SK-MEL-28
  GI50: > 74.1 µM (inactive)
SK-MEL-2
  GI50: > 59.3 µM (inactive)
SN12C
  GI50: > 100 µM (inactive)
SR
  GI50: > 43.4 µM (inactive)
TK-10
  GI50: > 59.3 µM (inactive)
U-251
  GI50: > 79.3 µM (inactive)
UACC-62
  GI50: 7.59 µM (inactive)

## COC1CC(OC2CCC3(C)C(=CCC4C3C(OC(C)=O)C(OC(=O)CC(C)C)C3(C)C(C(C)=O)CCC43O)C2)OC(C)C1OC1CC(OC)C(OC2CC(OC)C(OC3OC(C)C(O)C(OC)C3O)C(C)O2)C(C)O1 (stereo not drawn)
ACHN
  GI50: 31.6 µM (inactive)
BT-549
  GI50: 24.5 µM (inactive)
CAKI-1
  GI50: 44 µM (inactive)
HOP-92
  GI50: 22.5 µM (inactive)
HT-29
  GI50: 19.9 µM (inactive)
Hs-578T
  GI50: 49.8 µM (inactive)
IGROV-1
  GI50: 32.4 µM (inactive)
K562
  GI50: 36.6 µM (inactive)
KM12
  GI50: 33.1 µM (inactive)
NCI-H460
  GI50: 28.7 µM (inactive)
OVCAR-5
  GI50: 86.7 µM (inactive)
SF-295
  GI50: 33 µM (inactive)
SK-MEL-28
  GI50: 36 µM (inactive)
SK-MEL-2
  GI50: 24.7 µM (inactive)
SN12C
  GI50: 34.8 µM (inactive)
SR
  GI50: 31.5 µM (inactive)
TK-10
  GI50: 25.9 µM (inactive)
U-251
  GI50: 37.8 µM (inactive)
UACC-62
  GI50: 26.1 µM (inactive)

## Cn1c2ccccc2c2c3c(c4c5ccccc5n(C5OC(CO)C(O)C(O)C5O)c4c21)C(=O)OC3=O (stereo not drawn)
ACHN
  GI50: > 100 µM (inactive)
BT-549
  GI50: > 100 µM (inactive)
CAKI-1
  GI50: > 100 µM (inactive)
HOP-92
  GI50: > 100 µM (inactive)
HT-29
  GI50: > 100 µM (inactive)
Hs-578T
  GI50: > 100 µM (inactive)
IGROV-1
  GI50: > 100 µM (inactive)
K562
  GI50: > 100 µM (inactive)
KM12
  GI50: > 100 µM (inactive)
NCI-H460
  GI50: > 100 µM (inactive)
OVCAR-5
  GI50: > 100 µM (inactive)
SF-295
  GI50: > 100 µM (inactive)
SK-MEL-28
  GI50: > 100 µM (inactive)
SK-MEL-2
  GI50: > 100 µM (inactive)
SN12C
  GI50: > 100 µM (inactive)
SR
  GI50: > 100 µM (inactive)
TK-10
  GI50: > 100 µM (inactive)
U-251
  GI50: > 100 µM (inactive)
UACC-62
  GI50: > 100 µM (inactive)

## COCn1c(C)c(C)c2c(=O)oc(=O)[nH]c21
ACHN
  GI50: > 100 µM (inactive)
BT-549
  GI50: > 100 µM (inactive)
CAKI-1
  GI50: 8.24 µM (inactive)
HOP-92
  GI50: > 100 µM (inactive)
HT-29
  GI50: > 100 µM (inactive)
Hs-578T
  GI50: > 100 µM (inactive)
IGROV-1
  GI50: > 100 µM (inactive)
K562
  GI50: > 100 µM (inactive)
KM12
  GI50: > 100 µM (inactive)
NCI-H460
  GI50: > 100 µM (inactive)
OVCAR-5
  GI50: > 100 µM (inactive)
SF-295
  GI50: > 100 µM (inactive)
SK-MEL-28
  GI50: > 100 µM (inactive)
SK-MEL-2
  GI50: > 100 µM (inactive)
SN12C
  GI50: > 100 µM (inactive)
SR
  GI50: > 100 µM (inactive)
TK-10
  GI50: > 100 µM (inactive)
U-251
  GI50: > 100 µM (inactive)
UACC-62
  GI50: > 100 µM (inactive)
